The test system of data set [1] is HepG2 cells. Nature of the data set: Lactate released into the media. In kind it is cell-based.
The subject of data set [2] is HepG2 cells. Nature of the data set: Glucose concentration in the media. In kind it is cell-based.
Data set [3] relates to HepG2 cells.
The test system of data set [4] is HepG2 cells. The source holds these as a separate data set.
The conditions of data set [5]: led to fatally high body temperature; cited from earlier work.
The test system of data set [6] is Jurkat cells. Nature of the data set: Total cellular NAD^+ level after MNNG-induced depletion (NAD/NADH Glo assay). In kind it is cell-based. As to conditions: for % NAD^+ Repletion: MNNG 100 μM, compound 1 mM; for increase of NAD^+ level: 100 μM MNNG 30 min, wash, NR 100 μM or/and olaparib 5 nM 3.5 hr.
Data set [7] deals with HepG2 cells. The data set is described as above. It is filed as cell-based. As to conditions: MNNG 100 μM, compound 1 mM.
In data set [8] the test system is HepG2 cells. The data set is described as follows: MNNG-induced cytotoxicity / cytoprotection (CellTiter-Blue Cell Viability Assay). It is filed as cell-based. As to conditions: MNNG 600 μM, compound 1 mM.
Data set [9] deals with Jurkat cells. As to conditions: MNNG 100 μM, compound 1 mM.
Data set [10] concerns Jurkat cells. Nature of the data set: NAD^+ assay (total cellular NAD^+ by HPLC/LCMS), with or without MNNG. As to conditions: Jurkat not treated with MNNG; NRH vs. NR 100 μM; 4 hr.
For data set [11] the following is noted: 4 g of oral NTZ; healthy adults; cited from earlier work.

Counter-ions that a name gives are not always drawn. Like-named read-outs stand apart in the source and are kept apart here.

Regarding `O=[N+]([O-])c1ccc(O)c([N+](=O)[O-])c1` [DNP, 2,4-Dinitrophenol], the “concentration of lactate released into the media” value with HepG2 cells [1] was “markedly increased”. Moreover, the “concentration of glucose in the media” value with HepG2 cells [2] is “significantly reduced”. The “% viability of HepG2 cells” value in the data set with HepG2 cells [3] is “significantly reduced”. The “activity of lactate dehydrogenase (LDH) released into the media” value with HepG2 cells [4] is “markedly increased”. The “dose causing excessive systemic uncoupling, fold greater than minimum effective dose for reducing body weight” value in [5] is listed as 3-10 fold.

For the compound `NC(=O)c1ccc[n+]([C@@H]2O[C@H](COC(=O)CCC(=O)O)[C@@H](O)[C@H]2O)c1` [MP-42, 3-Carboxamide-1-((2R,3R,4S,5R)-5-(((3-carboxypropanoyl)oxy)methyl)-3,4-dihydroxytetrahydrofuran-2-yl)pyridin-1-ium Trifluoroacetate], the results for the “% NAD^+ Repletion” value in the data set on Jurkat cells [6] and in the data set on HepG2 cells [7] were 8.2% and 23.7%, respectively. Besides, the “% Cytoprotection” value in the data set with HepG2 cells [8] was determined as 9.9%; with Jurkat cells [9], 4.5%.

With `COC(=O)CCC(=O)OC[C@H]1O[C@@H]([n+]2cccc(C(N)=O)c2)[C@H](O)[C@@H]1O` [MP-43, 3-Carboxamide-1-((2R,3R,4S,5R)-3,4-dihydroxy-5-(((4-methoxy-4-oxobutanoyl)oxy)methyl)tetrahydrofuran-2-yl)pyridin-1-ium Trifluoroacetate], the “% NAD^+ Repletion” value stood at 12.9% with Jurkat cells [6] and 31.1% with HepG2 cells [7]. Besides, the “% Cytoprotection” value was found to be 5.7% in the data set with HepG2 cells [8] and 6.3% in the data set on Jurkat cells [9].

In the case of `NC(=O)c1ccc[n+]([C@@H]2O[C@H](CO)[C@@H](O)[C@H]2O)c1` [NR, nicotinamide riboside, reference compound], the “increase of NAD^+ level” value in the data set with Jurkat cells [6] was determined as 43%.

`NC(=O)C1=CN([C@@H]2O[C@H](CO)[C@@H](O)[C@H]2O)C=CC1` [NRH]: the “concentration of lactate released into the media” value in the data set on HepG2 cells [1] (50 μM DNP, 100 μM NRH or both, 4 hr, versus untreated, FIG. 28) is on record as “did not significantly affect”. Moreover, the “concentration of glucose in the media” value with HepG2 cells [2] (50 μM DNP, 100 μM NRH or both, 4 hr, versus untreated, FIG. 29) is reported as “did not significantly affect”. Moreover, in the data set with Jurkat cells [10], the “NAD^+ level, NRH alone versus NR alone” value is recorded as “markedly higher NAD^+ level than NR alone”.

As to `CC(=O)Oc1ccccc1C(=O)Nc1ncc([N+](=O)[O-])s1` [NTZ, nitazoxanide], in data set [11], the adverse effect result is “does not cause any significant adverse effect”.

On to `O=C(c1cc(Cc2n[nH]c(=O)c3ccccc23)ccc1F)N1CCN(C(=O)C2CC2)CC1` [olaparib, reference compound], for which, in the data set on Jurkat cells [6], the “increase of NAD^+ level” value worked out at 8%.

The values are drawn from US20200397807A1, “NICOTINYL RIBOSIDE COMPOUNDS AND THEIR USES” (MitoPower, LLC, priority 2019, published 2020).
